Where only a bound is given, the exact number is not on record here.

For assay [1], the system named is green peach aphid (Myzus persicae). As to the kind of experiment: Insecticidal test for green peach aphid in foliar spray assay. In kind it is in vivo. The note with it: 72 h, foliar spray on cabbage, Corrected % Control (Abbott) after three days, read-out: Rating against green peach aphid on cabbage (foliar spray).
For assay [2], the system named is cotton aphid (Aphis gossypii). As to the kind of experiment: Insecticidal test for cotton aphid in foliar spray assay. In kind it is in vivo. The note with it: 72 h, foliar spray on squash, Corrected % Control (Abbott) after 3 days, read-out: Rating against cotton aphid on squash (foliar spray). As to the method:
The compounds identified in the foregoing examples were tested against cotton aphid using procedures described hereinafter. Insecticidal Test for Cotton Aphid (Aphis gossypii) in Foliar Spray Assay Squash seedlings with fully expanded cotyledon leaves were trimmed to one cotyledon per plant and infested with cotton aphid (wingless adults and nymphs) 1 day prior to chemical application. Each plant was examined before chemical application to ensure uniform infestation (ca. 30-70 aphids per plant). Compounds (2 mg) were dissolved in 2 ml of acetone:methanol (1:1) solvent, forming stock solutions of 1000 ppm. The stock solutions were diluted 5× with 0.025% Tween 20 in H2O to obtain a solution at 200 ppm. A hand-held Devilbiss aspirator type sprayer was used to apply the spray solutions until runoff to both sides of the squash cotyledon leaves. Four plants (4 replications) were used for each compound. Reference plants (solvent check) were sprayed with the diluent only. Treated plants were held in a holding room for 3 days at approximately 23° C. and 40% RH before the number of live aphids on each plant was recorded. Insecticidal activity was measured by Corrected % Control using Abbott's correction formula and presented in Table 1-Activity: Corrected % Control=100*(X−Y)/X • where X=No. of live aphids on solvent check plants • Y=No. of live aphids on treated plants Results are shown in Table 7. Insecticidal Test for Green Peach Aphid (Myzus persicae) in Foliar Spray Assay

Regarding `CC(c1ccc(C(F)(F)F)nc1)S(C)(=O)=Nc1nc(Br)cs1` (stereo not shown) [Compound 13, 5-{1-[methyl(4-bromo-1,3-thiazol-2-yl)sulfonimidoyl]ethyl}-2-(trifluoromethyl)pyridine], the pest or weed control at 200 ppm in assay [1] was less than 80%; in assay [2] it was 80 to 100%.
The matching figures for `CC(c1ccc(C(F)(F)F)nc1)S(C)(=O)=Nc1cccc[n+]1[O-]` (stereo not shown) [Compound 24, 3-[1-ethyl(N-(1-oxy-pyridin-2-e)-sulfoximinyl)(methyl)]-6-trifluoromethylpyridine]: less than 80% and 80 to 100%.

Values taken from US8513462B2, “Pesticides and uses thereof” (Dow AgroSciences LLC, priority 2007, dated 2013).
